Tests used:
human TRPV1 = target: T1, human TRPV1 (Homo sapiens, UniProt Q8NER1); experiment: Functional assay: block of capsaicin-induced Ca2+ influx, human assay (hTRPV1/HEK293, FLIPR); type: cell-based; conditions: hTRPV1/HEK293 cells, 150 nM capsaicin challenge, Fluo-3 fluorescence; mean; > value = solubility limit in assay medium
T1 construct: expressed in transfected cells; host or cells: HEK293 (hTRPV1/HEK293), zeocin selection
In short: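 HEK293 cells stably expressing human TRPV1, fluo3-loaded, preincubated 30 min with compound (serial 3-fold dilutions from 10 μM, duplicate) in 20 μM Ca2+ buffer. Capsaicin response taken as fluo3 fluorescence change before vs 100 s after agonist; IC50 by non-linear regression, mean values; free base or TFA salt.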

rat TRPV1 = target: T2, rat TRPV1 (Rattus norvegicus, UniProt O35433); experiment: Functional assay: block of capsaicin-induced Ca2+ influx, rat assay (rTRPV1/HEK293, FLIPR); type: cell-based; conditions: rTRPV1/HEK293 cells, capsaicin challenge, Fluo-3 fluorescence; mean; > value = solubility limit in assay medium
T2 construct: expressed in transfected cells; host or cells: HEK293 (rTRPV1/HEK293), geneticin selection
T2 sequence (O35433 whole entry): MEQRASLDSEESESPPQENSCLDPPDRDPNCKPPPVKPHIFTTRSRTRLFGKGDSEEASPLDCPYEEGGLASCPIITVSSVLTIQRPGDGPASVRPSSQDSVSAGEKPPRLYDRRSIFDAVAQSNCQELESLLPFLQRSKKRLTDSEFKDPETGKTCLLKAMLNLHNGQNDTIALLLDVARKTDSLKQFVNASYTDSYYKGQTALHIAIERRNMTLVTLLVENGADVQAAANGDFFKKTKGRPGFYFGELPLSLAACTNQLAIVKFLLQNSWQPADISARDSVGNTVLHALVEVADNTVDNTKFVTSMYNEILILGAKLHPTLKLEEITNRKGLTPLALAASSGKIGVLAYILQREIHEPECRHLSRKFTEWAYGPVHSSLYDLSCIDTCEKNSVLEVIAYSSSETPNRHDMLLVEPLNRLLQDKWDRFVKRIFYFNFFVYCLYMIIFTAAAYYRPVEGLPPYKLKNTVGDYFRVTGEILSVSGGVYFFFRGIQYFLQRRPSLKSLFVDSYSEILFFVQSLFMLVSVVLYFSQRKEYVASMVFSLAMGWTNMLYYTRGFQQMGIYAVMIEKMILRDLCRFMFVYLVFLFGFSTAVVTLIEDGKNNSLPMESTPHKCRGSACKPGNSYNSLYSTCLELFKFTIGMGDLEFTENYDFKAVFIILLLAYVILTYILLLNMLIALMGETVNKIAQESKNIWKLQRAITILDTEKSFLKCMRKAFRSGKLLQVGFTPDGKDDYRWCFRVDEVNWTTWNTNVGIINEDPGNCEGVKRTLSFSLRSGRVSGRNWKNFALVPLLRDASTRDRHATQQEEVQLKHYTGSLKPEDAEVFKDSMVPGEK
In short: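 HEK293 cells expressing rat TRPV1, loaded with fluo3 and preincubated 30 min with compound in 20 μM Ca2+ buffer before capsaicin challenge. Block read as fluo3 fluorescence change over 100 s after agonist, 3-fold series from 10 μM in duplicate. IC50 by non-linear regression, mean values.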

T1 sequence (Q8NER1 whole entry): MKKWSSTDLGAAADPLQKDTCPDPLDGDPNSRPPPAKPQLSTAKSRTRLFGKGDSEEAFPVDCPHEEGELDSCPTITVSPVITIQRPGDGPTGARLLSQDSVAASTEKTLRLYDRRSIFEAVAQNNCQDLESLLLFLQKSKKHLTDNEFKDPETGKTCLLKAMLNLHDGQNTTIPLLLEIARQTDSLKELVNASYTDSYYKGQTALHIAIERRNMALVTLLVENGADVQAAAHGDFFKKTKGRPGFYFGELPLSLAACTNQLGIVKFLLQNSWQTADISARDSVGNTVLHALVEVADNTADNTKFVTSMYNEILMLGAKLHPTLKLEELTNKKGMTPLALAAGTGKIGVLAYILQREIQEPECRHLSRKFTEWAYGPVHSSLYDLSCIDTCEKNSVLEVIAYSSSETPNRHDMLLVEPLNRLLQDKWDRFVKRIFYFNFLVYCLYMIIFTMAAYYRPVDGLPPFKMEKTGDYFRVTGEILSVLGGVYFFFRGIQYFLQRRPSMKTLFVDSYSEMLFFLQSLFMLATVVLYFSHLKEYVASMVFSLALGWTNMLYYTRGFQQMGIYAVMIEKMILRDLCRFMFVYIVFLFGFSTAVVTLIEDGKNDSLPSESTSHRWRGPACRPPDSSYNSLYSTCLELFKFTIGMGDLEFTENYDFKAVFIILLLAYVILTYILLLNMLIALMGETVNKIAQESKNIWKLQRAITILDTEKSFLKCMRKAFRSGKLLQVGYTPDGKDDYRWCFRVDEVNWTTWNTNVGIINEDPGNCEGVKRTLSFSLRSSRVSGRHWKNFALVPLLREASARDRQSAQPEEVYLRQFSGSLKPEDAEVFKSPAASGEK

IC50 (human TRPV1) [nM]	IC50 (rat TRPV1) [nM]	Structure (SMILES)
375	431	COC(=O)c1scc(C)c1Nc1nc2c(Nc3ccc(C(F)(F)F)nc3)ncnc2s1 [Example 49, 4-Methyl-3-[7-(6-trifluoromethyl-pyridin-3-ylamino)-thiazolo[5,4-d]pyrimidin-2-ylamino]-thiophene-2-carboxylic acid methyl ester]
1970	313	Cc1ccc(Nc2ncnc3sc(Nc4c(C)cccc4C)nc23)c(O)c1 [Example 158, 2-[2-(2,6-Dimethyl-phenylamino)-thiazolo[5,4-d]pyrimidin-7-ylamino]-5-methyl-phenol]
5	3	CC(=O)c1ccc(Nc2nc(C)nc3sc(Nc4c(Cl)cccc4Cl)nc23)cc1 [Example 86, 1-{4-[2-(2,6-Dichloro-phenylamino)-5-methyl-thiazolo[5,4-d]pyrimidin-7-ylamino]-phenyl}-ethanone]
1220	205	Cc1nc(Nc2ccc(N(C)S(C)(=O)=O)cc2)c2nc(Nc3c(Cl)cccc3Cl)sc2n1 [Example 152, N-{4-[2-(2,6-Dichloro-phenylamino)-5-methyl-thiazolo[5,4-d]pyrimidin-7-ylamino]-phenyl}-N-methyl-methanesulfonamide]
≥ 6670	≥ 6670	Cc1nc(Nc2ccc(S(=O)(=O)N(C)C)cc2)c2nc(Nc3ncccc3C)sc2n1 [Example 212, N,N-Dimethyl-4-[5-methyl-2-(3-methyl-pyridin-2-ylamino)-thiazolo[5,4-d]pyrimidin-7-ylamino]-benzenesulfonamide]
45	11	Cc1ccccc1Nc1nc2c(Nc3ccc(S(C)(=O)=O)cc3)ncnc2s1 [Example 116, N^7-(4-Methanesulfonyl-phenyl)-N^2-o-tolyl-thiazolo[5,4-d]pyrimidine-2,7-diamine]
170	87	CC1CCCN1c1nc(Nc2ccc(C(F)(F)F)c(Cl)c2)c2nc(Nc3c(Cl)cccc3Cl)sc2n1 (racemic) [Example 130, (racemic)-N^7-(3-Chloro-4-trifluoromethyl-phenyl)-N^2-(2,6-dichloro-phenyl)-5-(2-methyl-pyrrolidin-1-yl)-thiazolo[5,4-d]pyrimidine-2,7-diamine]
1140	319	Cc1nc(Nc2ccc(C(F)(F)F)cc2)c2nc(N(C)c3c(Cl)cccc3Cl)sc2n1 [Example 23, N^2-(2,6-Dichloro-phenyl)-5,N^2-dimethyl-N^7-(4-trifluoromethyl-phenyl)-thiazolo[5,4-d]pyrimidine-2,7-diamine]
1520	1860	Cc1cccc(C)c1Nc1nc2c(Nc3ccc(OC4CCOC4)cc3)ncnc2s1 (racemic) [Example 154, (racemic)-N^2-(2,6-Dimethyl-phenyl)-N^7-[4-(tetrahydro-furan-3-yloxy)-phenyl]-thiazolo[5,4-d]pyrimidine-2,7-diamine]
21	3	CC(C)C1CCCN1c1nc(Nc2ccc(S(C)(=O)=O)cc2)c2nc(Nc3c(Cl)cccc3Cl)sc2n1 (racemic) [Example 177, (racemic)-N^2-(2,6-Dichloro-phenyl)-5-(2-isopropyl-pyrrolidin-1-yl)-N^7-(4-methanesulfonyl-phenyl)-thiazolo[5,4-d]pyrimidine-2,7-diamine]
38	17	CN(C)S(=O)(=O)c1ccc(Nc2ncnc3sc(Nc4ccccc4Cl)nc23)cc1 [Example 113, 4-[2-(2-Chloro-phenylamino)-thiazolo[5,4-d]pyrimidin-7-ylamino]-N,N-dimethyl-benzenesulfonamide]
226	154	CSc1nc(Nc2ccc(C(F)(F)F)cc2)c2nc(Nc3c(Cl)cccc3Cl)sc2n1 [Example 52, N^2-(2,6-Dichloro-phenyl)-5-methylsulfanyl-N^7-(4-trifluoromethyl-phenyl)-thiazolo[5,4-d]pyrimidine-2,7-diamine]
3	3	Cc1nc(Nc2ccc(C(F)(F)F)c(Cl)c2)c2nc(Nc3c(Cl)cccc3Cl)sc2n1 [Example 30, N^7-(3-Chloro-4-trifluoromethyl-phenyl)-N^2-(2,6-dichloro-phenyl)-5-methyl-thiazolo[5,4-d]pyrimidine-2,7-diamine]
2990	> 6670	Cc1ccc(Nc2ncnc3sc(Nc4c(C)cccc4C)nc23)cc1O [Example 160, 5-[2-(2,6-Dimethyl-phenylamino)-thiazolo[5,4-d]pyrimidin-7-ylamino]-2-methyl-phenol]
12	3	FC(F)(F)c1ccc(Nc2ncnc3sc(Nc4c(Cl)cccc4Cl)nc23)cc1 [Example 1, N^2-(2,6-Dichloro-phenyl)-N^7-(4-trifluoromethyl-phenyl)-thiazolo[5,4-d]pyrimidine-2,7-diamine]
18	12	CC(C)Nc1nc(Nc2ccc(C(F)(F)F)cc2)c2nc(Nc3c(Cl)cccc3Cl)sc2n1 [Example 101, N^2-(2,6-Dichloro-phenyl)-N^5-isopropyl-N^7-(4-trifluoromethyl-phenyl)-thiazolo[5,4-d]pyrimidine-2,5,7-triamine]
2470	1710	Cc1nc(Nc2ccc(C(F)(F)F)cc2)c2nc(Nc3ccccc3[N+](=O)[O-])sc2n1 [Example 206, 5-Methyl-N^2-(2-nitro-phenyl)-N^7-(4-trifluoromethyl-phenyl)-thiazolo[5,4-d]pyrimidine-2,7-diamine]
> 6670	> 6670	Cc1cccc(C)c1Nc1nc2c(Nc3ccc(C(F)(F)F)cc3Cl)ncnc2s1 [Example 167, N^7-(2-Chloro-4-trifluoromethyl-phenyl)-N^2-(2,6-dimethyl-phenyl)-thiazolo[5,4-d]pyrimidine-2,7-diamine]
133	125	COC[C@H]1CCCN1c1nc(Nc2ccc(C(F)(F)F)cc2)c2nc(Nc3c(Cl)cccc3Cl)sc2n1 [Example 194, (2R)-N^2-(2,6-Dichloro-phenyl)-5-(2-methoxymethyl-pyrrolidin-1-yl)-N^7-(4-trifluoromethyl-phenyl)-thiazolo[5,4-d]pyrimidine-2,7-diamine]
12	32	Cc1cccc(C)c1Nc1nc2c(Nc3ccc(S(C)(=O)=O)c(F)c3)ncnc2s1 [Example 97, N^2-(2,6-Dimethyl-phenyl)-N^7-(3-fluoro-4-methanesulfonyl-phenyl)-thiazolo[5,4-d]pyrimidine-2,7-diamine]
82	25	Cc1nc(Nc2ccc(C(F)(F)F)c(F)c2)c2nc(Nc3c(C)cccc3C)sc2n1 [Example 121, N^2-(2,6-Dimethyl-phenyl)-N^7-(3-fluoro-4-trifluoromethyl-phenyl)-5-methyl-thiazolo[5,4-d]pyrimidine-2,7-diamine]
4	2	Cc1nc(Nc2ccc(C(C)C)cc2)c2nc(Nc3c(Cl)cccc3Cl)sc2n1 [Example 84, N^2-(2,6-Dichloro-phenyl)-N^7-(4-isopropyl-phenyl)-5-methyl-thiazolo[5,4-d]pyrimidine-2,7-diamine]
> 20000	> 20000	Cc1nc(Nc2ccccc2)c2nc(Nc3c(Cl)cccc3Cl)sc2n1 [Example 170, N^2-(2,6-Dichloro-phenyl)-5-methyl-N^7-phenyl-thiazolo[5,4-d]pyrimidine-2,7-diamine]
123	32	FC(F)(F)c1ccc(Nc2nc(NCCN3CCCCC3)nc3sc(Nc4c(Cl)cccc4Cl)nc23)cc1 [Example 180, N^2-(2,6-Dichloro-phenyl)-N^5-(2-piperidin-1-yl-ethyl)-N^7-(4-trifluoromethyl-phenyl)-thiazolo[5,4-d]pyrimidine-2,5,7-triamine]
8	4	Cc1ccccc1Nc1nc2c(Nc3ccc(S(=O)(=O)N4CCOCC4)cc3)ncnc2s1 [Example 217, N^2-(2-Methylphenyl)-N^7-[4-(morpholin-4-ylsulfonyl)phenyl][1,3]thiazolo[5,4-d]pyrimidine-2,7-diamine]
> 2220	1460	Cc1cc(C(F)(F)F)ccc1Nc1ncnc2sc(Nc3c(C)cccc3C)nc12 [Example 159, N^2-(2,6-Dimethyl-phenyl)-N^7-(2-methyl-4-trifluoromethyl-phenyl)-thiazolo[5,4-d]pyrimidine-2,7-diamine]
6440	> 20000	CNCCNc1nc(Nc2ccc(C(F)(F)F)cc2)c2nc(Nc3c(Cl)cccc3Cl)sc2n1 [Example 181, N^2-(2,6-Dichloro-phenyl)-N^5-(2-methylamino-ethyl)-N^7-(4-trifluoromethyl-phenyl)-thiazolo[5,4-d]pyrimidine-2,5,7-triamine]
386	874	CS(=O)(=O)c1ccccc1Nc1nc2c(Nc3ccc(S(=O)(=O)C(F)(F)F)cc3)ncnc2s1 [Example 200, N^2-(2-Methanesulfonyl-phenyl)-N^7-(4-trifluoromethanesulfonyl-phenyl)-thiazolo[5,4-d]pyrimidine-2,7-diamine]
14	56	CC1CCCCN1c1nc(Nc2ccc(C(F)(F)F)cc2)c2nc(Nc3c(Cl)cccc3Cl)sc2n1 (racemic) [Example 191, (racemic)-N^2-(2,6-Dichloro-phenyl)-5-(2-methyl-piperidin-1-yl)-N^7-(4-trifluoromethyl-phenyl)-thiazolo[5,4-d]pyrimidine-2,7-diamine]
